Data on one molecule can be found in patent publication US20260325485A1, “COMPOSITIONS AND METHODS FOR TREATING PANCREATITIS” (The United States Government as represented by the …, priority 2022, published 2026).

Entries after “also recorded” stand apart in the source; their conditions may differ.

The test system of one test is pancreas. In words: Drug treatment of Gnptab−/− mice: pancreatic total cholesterol. The format is in vivo, mouse. On the procedure:
12-week-old Gnptab−/− mice were subjected to daily i.p. injections of 20 mg/kg simvastatin or the same dose of T0901317 for 4 or 21 days.
Total cholesterol content was measured with Cholesterol Assay kit per manufacturer's instructions. Samples of mouse pancreas and liver, cell pellet homogenates, subcellular fractions, isolated mitochondria, and serum were diluted in the reaction buffer containing cholesterol probe and incubated at 37° C. for 1 h in the dark. To measure total cholesterol, the samples were subjected to digestion with cholesterol esterase. To measure non-esterified cholesterol, the esterase was omitted from the assay.

In another test the test system is CER/CCK-AP. Description: Effect of simvastatin and BemA in CER/CCK-AP (mouse and ex-vivo model). On the procedure:
FIGS. 25A-25C show reducing cholesterol overload greatly ameliorates experimental pancreatitis. CER-AP responses were measured in (A) AclyAac or (C) WT mice treated with simvastatin or bempedoic acid (BemA). (B) Acinar cells were transfected with ACLA (or mock) siRNA and subjected to ex-vivo CCK-AP. Each symbol represents an individual mouse or cell preparation. Values are mean±SE. **p<0.01, ***p<0.001 vs saline treated control mice (or mock transfection); #p<0.05, ##p<0.01, ###p<0.001 vs CER/CCK-AP in control mice (i.e. without inhibitors) or cells.
FIGS. 26A-26D preventing cholesterol overload ameliorates ex-vivo pancreatitis. Mouse pancreatic acinar cells were incubated (A, B) with simvastatin (4 μM, 3 h) or (C, D) cholesterol chelator, methyl-β-cyclodextrin (MCD; 10 mM, 1 h) and then subjected to CCK-AP for 1 (D) or 3 h (A, B). Cholesterol content (A, C) necrosis (B), and trypsin activity (D) were measured. Each symbol represents an individual cell preparation. Values are mean±SEM*p<0/05, **p<0.01 vs control; #p<0.05 ##p<0.01; vs CCK, no inhibitor.
Cholesterol metabolism is disrupted in pancreatitis as a result of lysosomal/autophagy dysfunction. Preventing acinar cell cholesterol overload with simvastatin alleviates AP in one experimental model (CER-AP). As discussed above, lysosomal/autophagy dysfunction is associated with both experimental and human pancreatitis.^6, 7, 9, 13, 17 However, until a recent publication^13 there was very little known on cholesterol metabolism in healthy pancreas, its changes in experimental and human pancreatitis, and role in disease severity. Further, effects of statins and other cholesterol-lowering drugs in pancreas, and the underlying mechanisms, have not been explored. […] This, in turn, stimulates a compensatory increase in cholesterol synthesis, further exacerbating cholesterol overload. It was further shown^13 that inhibition of cholesterol synthesis with simvastatin reduced acinar cell cholesterol overload and the severity of pancreatitis induced with supramaximal cerulein (CER), an ortholog of the hormone cholecystokinin-8 (CCK). The findings^13 reveal a previously unrecognized pathogenic role of cholesterol dysregulation in pancreatitis and indicate normalizing cholesterol metabolism as a novel therapeutic approach for disease treatment.
In summary, the published^13 and current data (FIGS. 23-26) reveal that disruption of acinar cell cholesterol metabolism is a common feature in models of experimental pancreatitis and also prominent in human disease. The key manifestation of cholesterol dyshomeostasis in pancreatitis is acinar cell cholesterol overload. […]

Regarding `CCC(C)(C)C(=O)O[C@H]1C[C@@H](C)C=C2C=C[C@H](C)[C@H](CC[C@@H]3C[C@@H](O)CC(=O)O3)[C@H]21` [simvastatin], the “total cholesterol content in pancreas, Gnptab−/− mice” value in the test with pancreas (20 mg/kg i.p. daily for 4 or 21 days) is “Neither treatment changed”. The “pancreatic total cholesterol, Gnptab−/− mice” value in the test with pancreas (even for 3 weeks) is recorded as “failed to decrease”. Moreover, in the test on CER/CCK-AP, the “cholesterol overload, CER/CCK-AP” value is listed as “reduced; also recorded: prevented” and the “disease severity, CER/CCK-AP” value was “reduced”.
